According to ChEMBL document CHEMBL5131397, “Discovery and Optimization of Pyrazole Amides as Inhibitors of ELOVL1” (J Med Chem, 2021):
The source made the active and inactive calls. The calls are words filed in the database; no cut-off is given here.

What was measured:
[1] = Clearance in Cynomolgus monkey at 1 mg/kg, iv upto 48 hrs by LC/MS/MS analysis; type: ADME, organism-based, Macaca fascicularis; conditions: in vivo
[2] = Reduction in C26:0 LPC level in ABCD1 knock out mouse blood at or above 4 mg/kg, po qd for 105 days by LC-MS/MS analysis relative to control; type: functional; design: scale not given: the % may be the effect or the level left; conditions: time 105 day
[3] = Oral bioavailability in Sprague-Dawley rat at 3 mg/kg upto 24 hrs by LC/MS/MS analysis; type: ADME, organism-based; conditions: in vivo
[4] = Reduction in C26:0 LPC level in ELOVL-1 KO clonal human HEK-293T cells in presence of 13C-labeled acetate measured after 48 hrs by mass spectroscopy relative to control; type: functional; design: scale not given: the % may be the effect or the level left
[5] = Plasma protein binding in rat at 5 uM; type: ADME, cell-free; conditions: read-out: PPB (converted)
[6] = target: T1, Very long chain fatty acid elongase 4 (Homo sapiens, UniProt Q9GZR5); assay: Inhibition of ELOVL4 (unknown origin) in presence of C26-acyl-CoA by radiometric enzyme assay
T1 sequence (Q9GZR5 whole entry): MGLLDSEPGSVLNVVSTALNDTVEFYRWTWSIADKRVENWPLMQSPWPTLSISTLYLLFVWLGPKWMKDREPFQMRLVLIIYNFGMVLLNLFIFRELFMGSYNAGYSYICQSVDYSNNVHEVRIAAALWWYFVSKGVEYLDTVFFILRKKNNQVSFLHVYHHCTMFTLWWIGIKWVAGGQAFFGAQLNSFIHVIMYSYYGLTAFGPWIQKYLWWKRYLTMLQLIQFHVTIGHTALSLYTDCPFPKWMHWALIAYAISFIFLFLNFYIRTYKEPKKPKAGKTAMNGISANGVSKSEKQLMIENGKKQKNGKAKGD

[7] = Cmax in Sprague-Dawley rat at 3 mg/kg, po upto 24 hrs by LC/MS/MS analysis; type: ADME, organism-based; design: dose 3 mg/kg, time < 24 hrs, route po; conditions: in vivo
[8] = Oral bioavailability in Beagle dog at 3 mg/kg upto 24 hrs by LC/MS/MS analysis; type: ADME, organism-based, Canis lupus familiaris; conditions: in vivo
[9] = Plasma protein binding in monkey at 5 uM; type: ADME, cell-free, Macaca mulatta; conditions: rhesus monkey, read-out: PPB (converted)
[10] = target: Rho-associated protein kinase 1 (Homo sapiens) (UniProt Q13464); assay: Inhibition of ROCK 1 (unknown origin) at 10 uM
[11] = Reduction in C26:0/C16:0 LPC level in wild-type Sprague-Dawley rat at 100 mg/kg, po qd treated for 7 days by LC-MS/MS analysis; type: functional; design: scale not given: the % may be the effect or the level left; conditions: time 7 day
[12] = Toxicity in ABCD1 knock out mouse assessed as decrease in body weight at 8 to 32 mg/kg, po qd treated for 6 months; type: organism-based; conditions: in vivo, 4380 h, dose 8-32 mg/kg
[13] = target: T2, Very long chain fatty acid elongase 1 (Homo sapiens) (UniProt Q9BW60); assay: Inhibition of ELOVL-1 in human HEK2936E cells assessed as reduction in C26:0 lysophosphatidyl choline synthesis at 100 nM in presence of 13C-labeled acetate measured after 48 hrs; type: cell-based
T2 sequence (whole entry): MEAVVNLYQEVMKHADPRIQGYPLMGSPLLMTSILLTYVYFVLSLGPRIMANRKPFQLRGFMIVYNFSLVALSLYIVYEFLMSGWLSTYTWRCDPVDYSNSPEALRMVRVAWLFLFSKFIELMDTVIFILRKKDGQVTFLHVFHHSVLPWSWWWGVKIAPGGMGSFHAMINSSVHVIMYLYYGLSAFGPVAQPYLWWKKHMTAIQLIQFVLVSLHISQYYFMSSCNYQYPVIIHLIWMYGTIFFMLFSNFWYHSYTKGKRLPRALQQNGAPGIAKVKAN

[14] = Toxicity in Sprague-Dawley rat assessed as adverse effects at 5 to 50 mg/kg/day, po administered for 8 weeks and measured after cessation dosing by long-term safety study; type: organism-based; conditions: in vivo, 1344 h, dose 5-50 mg/kg/day
[15] = Toxicity in juvenile Sprague-Dawley rat assessed as corneal mineralization at 5 to 75 mg/kg/day, po treatment started from postnatal day 18 to 114 days; type: organism-based; conditions: in vivo, dose lower 5 mg/kg/day, time lower 18 day, dose upper 75 mg/kg/day, time upper 114 day
[16] = Reduction in C26:0/C16:0 total VLFCA levels in ABCD1 knock out mouse CNS at 10 mg/kg, po qd measured after 2 months of dosing by LC-MS/MS analysis; type: functional; design: scale not given: the % may be the effect or the level left; conditions: 1460 h
[17] = Reduction in C26:0/C16:0 LPC level in ABCD1 knock out mouse CNS at 4 mg/kg, po qd measured after 6 months of dosing by LC-MS/MS analysis; type: functional; design: scale not given: the % may be the effect or the level left; conditions: 4380 h
[18] = Toxicity in Sprague-Dawley rat assessed as reversal of lesions at 5 to 50 mg/kg/day, po administered for 8 weeks and measured after cessation dosing; type: organism-based; conditions: in vivo, 1344 h, dose 5-50 mg/kg/day
[19] = Volume of distribution at steady state in mouse at 1 mg/kg, iv upto 48 hrs by LC/MS/MS analysis; type: ADME, organism-based; conditions: in vivo, read-out: Vdss
[20] = Toxicity in Cynomolgus monkey assessed as dry and red scaly areas on eyelids at 5 to 50 mg/kg/day, po administered for 14 days by macroscopic observation analysis; type: organism-based, Macaca fascicularis; conditions: in vivo, 336 h, dose 5-50 mg/kg/day, time 14 day
[21] = Toxicity in Sprague-Dawley rat assessed as erosion of forestomach at 5 to 50 mg/kg/day, po administered for 2 to 8 weeks; type: organism-based; conditions: in vivo, dose lower 5 mg/kg/day, time lower 2 weeks, dose upper 50 mg/kg/day, time upper 8 weeks
[22] = Reduction in C26:0 LPC level in ABCD1 knock out mouse CNS at 16 mg/kg, po qd measured after 6 months of dosing by LC-MS/MS analysis; type: functional; design: scale not given: the % may be the effect or the level left; conditions: 4380 h
[23] = Toxicity in Sprague-Dawley rat assessed as ocular stromal fibrosis at 5 mg/kg/day, po administered for 8 weeks by microscopic observation analysis; type: organism-based; conditions: in vivo, 1344 h
[24] = Toxicity in Sprague-Dawley rat assessed as decrease in body weight at 5 to 50 mg/kg/day, po administered for 2 weeks; type: organism-based; conditions: in vivo, 336 h, dose 5-50 mg/kg/day
[25] = target: T3, Very long chain fatty acid elongase 1 (Homo sapiens, UniProt Q9BW60); assay: Inhibition of ELOVL1 in human microglia assessed as reduction of C26:0 VLCFA synthesis incubated for 48 hrs by cellular assay; type: cell-based
T3 sequence (Q9BW60 whole entry): T2 sequence (whole entry)

[26] = Volume of distribution at steady state in Beagle dog at 0.5 mg/kg, iv upto 48 hrs by LC/MS/MS analysis; type: ADME, organism-based, Canis lupus familiaris; conditions: in vivo, read-out: Vdss
Mus musculus = assay: Reduction of C26:0 LPC level in ABCD1 knock out mouse blood at 1 to 16 mg/kg, po qd measured after 6 days of dosing by LC-MS/MS analysis; type: functional, organism-based; conditions: dose 1-16 mg/kg, time 6.0 day
[27] = target: T3, Very long chain fatty acid elongase 1; assay: Inhibition of ELOVL1 in human HEK2936E cells assessed as reduction of C26:0 LPC synthesis incubated for 48 hrs by cellular assay; type: cell-based
[28] = target: T3, Very long chain fatty acid elongase 1; assay: Inhibition of ELOVL1 in Het […] 1 patient-derived human lymphocyte assessed as reduction of C26:0 VLCFA synthesis incubated for 48 hrs by cellular assay; type: cell-based
[29] = Toxicity in Cynomolgus monkey assessed as dry and red scaly areas on thorax at 5 to 50 mg/kg/day, po administered for 14 days by macroscopic observation analysis; type: organism-based, Macaca fascicularis; conditions: in vivo, 336 h, dose 5-50 mg/kg/day, time 14 day

Sequence of Rho-associated protein kinase 1 (Homo sapiens) (Q13464 2-1354 limits assumed): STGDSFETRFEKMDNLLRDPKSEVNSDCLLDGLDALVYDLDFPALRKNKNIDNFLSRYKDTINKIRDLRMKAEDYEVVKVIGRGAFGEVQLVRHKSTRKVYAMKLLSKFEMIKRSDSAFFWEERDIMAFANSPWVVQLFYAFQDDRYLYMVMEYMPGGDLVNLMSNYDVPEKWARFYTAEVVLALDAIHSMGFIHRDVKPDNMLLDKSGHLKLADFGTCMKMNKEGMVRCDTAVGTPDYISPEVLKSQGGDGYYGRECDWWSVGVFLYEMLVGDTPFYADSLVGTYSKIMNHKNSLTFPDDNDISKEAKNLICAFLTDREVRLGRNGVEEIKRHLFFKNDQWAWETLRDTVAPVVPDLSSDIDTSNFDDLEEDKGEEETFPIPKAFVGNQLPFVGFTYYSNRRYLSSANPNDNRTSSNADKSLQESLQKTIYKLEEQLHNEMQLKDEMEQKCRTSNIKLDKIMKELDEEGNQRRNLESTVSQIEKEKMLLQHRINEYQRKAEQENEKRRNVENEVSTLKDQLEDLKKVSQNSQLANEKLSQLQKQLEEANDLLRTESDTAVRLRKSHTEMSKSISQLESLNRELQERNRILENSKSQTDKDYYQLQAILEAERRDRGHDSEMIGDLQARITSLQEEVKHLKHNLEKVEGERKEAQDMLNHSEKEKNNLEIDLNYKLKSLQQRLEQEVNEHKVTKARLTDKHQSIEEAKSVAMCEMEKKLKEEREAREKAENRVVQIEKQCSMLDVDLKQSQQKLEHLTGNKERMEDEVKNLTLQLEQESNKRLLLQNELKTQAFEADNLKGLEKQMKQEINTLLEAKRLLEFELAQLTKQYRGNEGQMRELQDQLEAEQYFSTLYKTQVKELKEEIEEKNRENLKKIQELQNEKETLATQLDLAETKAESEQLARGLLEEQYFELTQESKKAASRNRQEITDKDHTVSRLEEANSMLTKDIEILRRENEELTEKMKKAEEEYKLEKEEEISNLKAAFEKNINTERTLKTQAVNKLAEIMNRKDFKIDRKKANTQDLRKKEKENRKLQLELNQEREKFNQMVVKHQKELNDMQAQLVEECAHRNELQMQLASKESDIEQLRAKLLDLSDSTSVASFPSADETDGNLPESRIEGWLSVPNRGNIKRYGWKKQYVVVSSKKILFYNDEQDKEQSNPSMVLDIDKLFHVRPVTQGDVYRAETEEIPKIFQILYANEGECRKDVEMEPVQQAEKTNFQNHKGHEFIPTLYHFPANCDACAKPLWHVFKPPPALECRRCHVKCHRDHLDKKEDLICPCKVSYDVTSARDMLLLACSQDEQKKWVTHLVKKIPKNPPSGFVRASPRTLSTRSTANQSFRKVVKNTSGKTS

clearance [1]: 7 mL/min/kg
F [3]: 66%
fraction unbound at 5 µM [5]: 0.071
IC50 [6]: > 200 µM
Cmax [7]: 174 ng/mL
bioavailability [8]: 77%
fraction unbound at 5 µM [9]: 0.094
inhibition [10]: > 50%
inhibition [13]: Active
Vd [19]: 2.6 L/kg
IC50 [25]: 11 nM
Vd [26]: 7.5 L/kg
IC50 [27]: 13 nM
IC50 [28]: 5 nM
Structure (SMILES): O=C(Nc1ccn(-c2ccnc(F)c2)n1)C1(c2ccccc2F)CC1
Activity [2]: 85%
Activity [4]: 90%
Activity [11]: 77%
Activity [12]: Non-Toxic
Activity [14]: Non-Toxic
Activity [15]: Toxic
Activity [16]: 50%
Activity [17]: 57%
Activity [18]: Non-Toxic
Activity [20]: Toxic
Activity [21]: Toxic
Activity [22]: 51%
Activity [23]: Toxic
Activity [24]: Toxic
Activity (Mus musculus): Active
Activity [29]: Toxic
